In ChEMBL document CHEMBL1201862, “PubChem BioAssay data set” (2004):
Activity calls are given as the source filed them. Cut-off read from the data, not from the text of the source: actives have a measured IC50 and inactives only a lower limit.

Target: Envelope glycoprotein gp160 (Human immunodeficiency virus 1, UniProt Q6QLK5)
Assay: inhibitors of HIV fusion peptide binding, primary screen, biochemical, uHTS, fluorescence dequenching (AID 1986)

Chain of Envelope glycoprotein gp160 (Q6QLK5 whole entry, the tested form may be a part): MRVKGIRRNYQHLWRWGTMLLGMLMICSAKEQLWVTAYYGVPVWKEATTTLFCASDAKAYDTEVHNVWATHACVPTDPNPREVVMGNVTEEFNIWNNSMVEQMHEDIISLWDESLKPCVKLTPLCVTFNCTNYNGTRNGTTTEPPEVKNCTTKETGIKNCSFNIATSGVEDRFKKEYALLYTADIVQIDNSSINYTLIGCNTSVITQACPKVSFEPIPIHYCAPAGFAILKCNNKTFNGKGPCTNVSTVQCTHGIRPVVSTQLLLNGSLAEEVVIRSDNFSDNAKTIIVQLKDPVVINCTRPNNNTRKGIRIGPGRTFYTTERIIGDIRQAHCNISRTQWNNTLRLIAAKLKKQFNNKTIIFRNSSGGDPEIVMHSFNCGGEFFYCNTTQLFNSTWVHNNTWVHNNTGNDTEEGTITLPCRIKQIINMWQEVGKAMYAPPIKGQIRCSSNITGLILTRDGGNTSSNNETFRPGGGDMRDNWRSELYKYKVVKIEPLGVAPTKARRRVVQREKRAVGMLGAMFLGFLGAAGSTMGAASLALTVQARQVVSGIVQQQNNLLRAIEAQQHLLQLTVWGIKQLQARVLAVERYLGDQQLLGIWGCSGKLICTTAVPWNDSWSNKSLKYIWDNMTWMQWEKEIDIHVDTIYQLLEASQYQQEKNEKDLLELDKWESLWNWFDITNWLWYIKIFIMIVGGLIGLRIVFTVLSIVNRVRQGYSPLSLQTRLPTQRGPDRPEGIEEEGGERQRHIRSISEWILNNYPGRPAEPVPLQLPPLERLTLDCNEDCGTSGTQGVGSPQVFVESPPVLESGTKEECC

O=S(=O)(Nc1nc(-c2sccc2Cl)cs1)c1cc(Cl)ccc1Cl
IC50: 8.21 µM (active)
